Laboratory results published in ChEMBL document CHEMBL3885861, “Open TG-GATES”.

Species on record: Rattus norvegicus
Assay: Open TG-GATES - Regimen: Single
Type: toxicity, organism-based, Sprague-Dawley
Parameters: regimen Single, gender Male, age 6 weeks
Conditions: in vivo, po, route gavage; for APTT / Bas / Eos / Fbg / Hb / Ht / Lym / MCH / MCHC / MCV / Mono / Neu / PT / Plat / RBC / Ret / WBC: tissue Blood; for KIDNEY_L / KIDNEY_R / KIDNEY_TOTAL: tissue Kidney; for LIVER: tissue Liver; for ALP / ALT / AST / BUN / CRE / Ca / DBIL / GLC / K / LDH / Na / PL / RALB / TBIL / TC / TG / TP / gamma-GTP / IP: tissue Plasma
[1] = 0 mg/kg, 3 h, dose level Control
[2] = 0 mg/kg, 6 h, dose level Control
[3] = 0 mg/kg, 9 h, dose level Control
[4] = 0 mg/kg, 24 h, dose level Control

Oc1ncnc2[nH]ncc12 [ALLOPURINOL]
TERMINAL_BW [1]: 209.8 g | APTT [1]: 16.7 s | Bas [1]: 0% | Eos [1]: 0.8% | Fbg [1]: 211 mg/dL | Hb [1]: 14 g/dL | Ht [1]: 41.7% | Lym [1]: 73.2% | MCH [1]: 21.9 pg | MCHC [1]: 33.7% | MCV [1]: 65.1 fL | Mono [1]: 7.4% | Neu [1]: 18.6% | PT [1]: 12.3 s | Plat [1]: 111.5 x10_4/uL | RBC [1]: 641.2 x10_4/ul | Ret [1]: 8.1% | WBC [1]: 95.8 x10_2/uL | KIDNEY_L [1]: 1 g | KIDNEY_R [1]: 1 g | KIDNEY_TOTAL [1]: 1.9 g | LIVER [1]: 10.1 g | ALP [1]: 925 IU/L | ALT [1]: 30.8 IU/L | AST [1]: 60 IU/L | BUN [1]: 12 mg/dL | CRE [1]: 0.5 mg/dL | Ca [1]: 10.9 mg/dL | DBIL [1]: 0.058 mg/dL | GLC [1]: 189.4 mg/dL | K [1]: 4.8 meq/L | LDH [1]: 96.6 IU/L | Na [1]: 139.2 meq/L | PL [1]: 137.4 mg/dL | RALB [1]: 3.7 g/dL | TBIL [1]: 0.4 mg/dL | TC [1]: 71.8 mg/dL | TG [1]: 59.4 mg/dL | TP [1]: 5.6 g/dL | gamma-GTP [1]: 1.4 IU/L | TERMINAL_BW [2]: 210 g | APTT [2]: 16.3 s | Bas [2]: 0% | Eos [2]: 1% | Fbg [2]: 212.6 mg/dL | Hb [2]: 14.1 g/dL | Ht [2]: 42% | Lym [2]: 80% | MCH [2]: 22.2 pg | MCHC [2]: 33.4% | MCV [2]: 66.3 fL | Mono [2]: 5.6% | Neu [2]: 13.6% | PT [2]: 12.3 s | Plat [2]: 111.5 x10_4/uL | RBC [2]: 634 x10_4/ul | Ret [2]: 8.2% | WBC [2]: 98.8 x10_2/uL | KIDNEY_L [2]: 0.9 g | KIDNEY_R [2]: 0.9 g | KIDNEY_TOTAL [2]: 1.8 g | LIVER [2]: 9.5 g | ALP [2]: 787 IU/L | ALT [2]: 31.8 IU/L | AST [2]: 62.2 IU/L | BUN [2]: 11.2 mg/dL | CRE [2]: 0.4 mg/dL | Ca [2]: 11.1 mg/dL | DBIL [2]: 0.032 mg/dL | GLC [2]: 185.4 mg/dL | K [2]: 5 meq/L | LDH [2]: 96.6 IU/L | Na [2]: 139 meq/L | PL [2]: 132 mg/dL | RALB [2]: 3.8 g/dL | TBIL [2]: 0.3 mg/dL | TC [2]: 71.8 mg/dL | TG [2]: 54.4 mg/dL | TP [2]: 5.6 g/dL | gamma-GTP [2]: 0.8 IU/L | TERMINAL_BW [3]: 204.6 g | APTT [3]: 16.6 s | Bas [3]: 0% | Eos [3]: 1% | Fbg [3]: 221.2 mg/dL | Hb [3]: 13.8 g/dL | Ht [3]: 41.1% | Lym [3]: 71.4% | MCH [3]: 21.8 pg | MCHC [3]: 33.7% | MCV [3]: 64.8 fL | Mono [3]: 9.6% | Neu [3]: 18% | PT [3]: 12.3 s | RBC [3]: 633.4 x10_4/ul | Ret [3]: 7.5% | WBC [3]: 81.8 x10_2/uL | KIDNEY_L [3]: 0.9 g | KIDNEY_R [3]: 0.9 g | KIDNEY_TOTAL [3]: 1.9 g | LIVER [3]: 9 g | ALP [3]: 761 IU/L | ALT [3]: 28.6 IU/L | AST [3]: 61.2 IU/L | BUN [3]: 12.4 mg/dL | CRE [3]: 0.4 mg/dL | DBIL [3]: 0.018 mg/dL | GLC [3]: 197.8 mg/dL | IP [3]: 11.2 mg/dL | K [3]: 4.7 meq/L | Na [3]: 139.2 meq/L | PL [3]: 136.4 mg/dL | RALB [3]: 3.8 g/dL | TBIL [3]: 0.4 mg/dL | TC [3]: 73 mg/dL | TG [3]: 48 mg/dL | TP [3]: 5.7 g/dL | gamma-GTP [3]: 1.2 IU/L | TERMINAL_BW [4]: 223.3 g | APTT [4]: 16.3 s | Bas [4]: 0.2% | Eos [4]: 0.8% | Fbg [4]: 219 mg/dL | Hb [4]: 13.4 g/dL | Ht [4]: 39.8% | Lym [4]: 72% | MCH [4]: 21.8 pg | MCHC [4]: 33.6% | MCV [4]: 65 fL | Mono [4]: 12.4% | Neu [4]: 14.8% | PT [4]: 12 s | Plat [4]: 110.8 x10_4/uL | RBC [4]: 613.4 x10_4/ul | Ret [4]: 8.1% | WBC [4]: 97 x10_2/uL | KIDNEY_L [4]: 1 g | KIDNEY_R [4]: 1 g | KIDNEY_TOTAL [4]: 2 g | ALP [4]: 987.2 IU/L | ALT [4]: 31.2 IU/L | AST [4]: 63.4 IU/L | BUN [4]: 18 mg/dL | CRE [4]: 0.5 mg/dL | DBIL [4]: 0.02 mg/dL | GLC [4]: 193.2 mg/dL | IP [4]: 8.4 mg/dL | K [4]: 5.1 meq/L | LDH [4]: 94 IU/L | Na [4]: 138 meq/L | PL [4]: 153.4 mg/dL | RALB [4]: 3.8 g/dL | TBIL [4]: 0.3 mg/dL | TC [4]: 81.6 mg/dL | TG [4]: 99 mg/dL | TP [4]: 5.7 g/dL | gamma-GTP [4]: 1.2 IU/L | TERMINAL_BW (15 mg/kg, 3 h, dose level Low): 213.7 g
